Entries after “also recorded” stand apart in the source; their conditions may differ.
Assays:
alveolar macrophages = test: Reconstitution of adherence of B. pertussis mutant BP101/TOX6 to macrophages by exogenous PT and subunits; assay type: cell-based; details: PT component 50 ug/ml coated on BP101/TOX6; 10^7 bacteria, 10^5 rabbit alveolar macrophages, 3 hours; mean ± standard deviation
Procedure: (§1) The ability of PT or the individual subunits to act as adhesins for PT-deficient bacteria to eukaryotic cells was assessed as described by Tuomanen et al (1985). Infect. Dis. 153, 118-125 and Relman et al (199) Cell 61, 1375-1382. […] For the test reported in Table 1 PT or its individual subunits (50 ug/ml) were incubated for 30 minutes with strain BPTOX6 for ciliated cell assays or BP101/TOX6 for macrophage assays in order to coat the bacteria with adhesin. 10^7 bacteria were then incubated for 3 hours with 10^5 ciliated cells or alveolar macrophages harvested from healthy rabbits (2,4). Adherence was detected by staining of the bacteria with a 1:40 dilution of fluorescein conjugated anti-Bordetella antibody (Difco, Detroit, Mich.). Values are expressed as the mean ±standard deviation of the number of bacteria per eukaryotic cell, 25 cells/test, and each test repeated in triplicate. The procedure is described in more detail in Saukkonen et al Proc. Natl. Acad. Sci. 89,118-122 (1991).

ciliated cells = test: Reconstitution of adherence of B. pertussis mutant BPTOX6 to ciliated cells by exogenous PT and subunits; assay type: cell-based; details: PT component 50 ug/ml coated on BPTOX6; 10^7 bacteria, 10^5 rabbit ciliated cells, 3 hours; mean ± standard deviation
Procedure: as §1

ELAM = test: Assay 1: inhibition of adherence of neutrophils to ELAM-coated surfaces (FIG. 4); assay type: cell-based; details: protein at 50 ug/ml, compared to buffer control
Procedure: (§2) In the study, the proteins PT, B-oligomer, S2, S3, S2/S3 and S3/S2 were taken up in an isotonic buffered tissue culture medium to a concentration of 50 ug/ml and the ability of each of them to inhibit adhesion of neutrophils to ELAM or GMP140 was determined as described by Wright et al J. Exp. Med. 158:2016 (1983). The buffer was employed as the control and each protein studied was compared to the control for the ability to decrease adhesion capacity.
Assay 1 is inhibition of adherence of enutrophils to ELAM-coated surfaces as described in connection with FIG. 4. Values ±20% inhibition are significant.

GMP140 = test: Inhibition of adhesion of neutrophils to GMP140 (FIG. 4B); assay type: cell-based; details: protein at 50 ug/ml, compared to buffer control
Procedure: as §2

[1] = Carbohydrate recognition: binding to glycolipids separated by thin layer chromatography (FIG. 3)
Text: The variability in the S2 and S3 segments shown in FIG. 1 SEQ ID NOS:42-47 is, quite clearly responsible for the variation in carbohydrate binding properties of PT, S2 and S3 which have been observed.
The peptides S2/S3 and S3/S2 are novel therapeutic agents and are specifically included within the scope of this invention, as are the genes which express them.
In FIG. 3, the dark bars represent the positions of glycolipids after separation by thin layer chromatography in accordance with the method of Tuomanen et al, J. Exp Med 168:267, 1988.

[2] = tested on: leukocytes in cerebrospinal fluid; test: Rabbit model of pneumococcal meningitis: leukocytes in cerebrospinal fluid (FIG. 6b, 7B); assay type: in vivo; details: rabbits with established pneumococcal meningitis; intravenous PT or B-oligomer
Text: This is shown experimentally in FIG. 6b. In the experiments rabbits with established pneumonococcal meningitis received intravenous PT or B-oligomer.
FIG. 7B illustrates the use of anti S-segment antibodies to decrease the inflammation in a rabbit model of meningitis. Rabbits with established pneumonococcal meningitis received antibodies to intact PT or PT subunits: S2:3A12, S3:6F8 and S4:9C6.

With pertussis toxin [PT] the “Number of bacteria/target cell, Macrophage” value (alveolar macrophages) was 21 ± 2.3 bacteria/target cell, the “Number of bacteria/target cell, Ciliated Cell” value (ciliated cells) was 6.7 ± 0.8 bacteria/target cell and the “inhibition of neutrophil/leukocyte adherence to ELAM” value (ELAM) was 60%. The “inhibition of neutrophil adhesion to GMP140” value (GMP140) was 30%, the “carbohydrates (glycolipids) recognized” value [1] was “binds to lactosylceramide, glucosylceramide, sulfatides and gangliosides; also recorded: recognize lactosylaceramide, and gangliosides” and the “accumulation of leukocytes in cerebrospinal fluid” value [2] was “decreased the accumulation of leukocytes in cerebrospinal fluid”.

Reference: patent US5817617A, “Selectin and pertussis toxin derived peptides and uses thereof” (The Rockefeller University, priority 1994, dated 1998)
